Laboratory results reported in patent US20260097045A1, “ANTIMICROBIAL COMBINATIONS” (Helperby Therapeutics Limited, priority 2022, published 2026).
Residues, ends and D or L forms follow the SMILES beside them.

What was measured:
Format in all cases: cell-based
P. aeruginosa = assay: chequerboard assay (percentage of positive control, MIC, FIC) against P. aeruginosa; conditions: for MIC: Pseudomonas aeruginosa, read-out: MIC Monotherapy (X)
From the text: (§1) FICI or fractional inhibitory concentration index is the sum of the FICs of each antimicrobial when used in combination. The FIC or fractional inhibitory concentration of an antimicrobial in a combination, is the MIC of the antimicrobial in the combination divided by the MIC of the same antimicrobial when used alone. Minimum inhibitory concentrations are defined in the art as the lowest concentration of an antimicrobial that will inhibit the visible growth of a microorganism after overnight incubation.
(§2) In the method for a 3-mer combination, one antibiotic was “fixed” as part of a backbone whilst the two other antibiotics were varied over a doubling concentration scale beginning at the MIC (×1) for the effective dose in monotherapy against the organism being tested. The ΣFIC was then calculated as shown below. In the method for a 4-mer combination, two antibiotics were “fixed” as part of a backbone whilst the two other antibiotics were varied over a doubling concentration scale beginning at the MIC (×1) for the effective dose in monotherapy against the organism being tested.
(§3) The ΣFIC was divided by “0.5/n” where n=number of antimicrobials in the combination to provide FIC. The inventors opted for this expression because it more closely aligns with the 2-mer synergy levels. The same FIC scale as used for 2-mers was applied: synergy is observed when FIC is <0.5. An “Additive” effect is observed when FIC is 0.5 to <1. Indifference is observed when FIC is 1 to <2. Antagonism is observed when FIC is 2 to 4.
(§4) The antimicrobial agents were sourced from commercially available sources. They were prepared by being weighed and dissolved in water, PBS, DMSO or acidified water to a final concentration from 1-10 mg/mL. Antimicrobial solutions were diluted to 10× highest concentration used in the experiment and subsequently diluted 2× over a series not exceeding 11 serial dilutions. These left the operator with a maximum of 12 different, descending concentrations of the chosen antimicrobials.
(§5) The bacteria were obtained from Ninewells Hospital and Medical School in Dundee, Scotland. They were obtained as patient strains and characterised by Vitek 2 screening. To prepare for the Examples below, the bacteria were grown overnight in Mueller Hinton Cation adjusted broth or until confluent in media with or without supplements. The bacteria were measured for OD600 and readings of <0.25 were returned to the incubator.
(§6) All data herein was produced using the same chequerboard assay.
(§7) 20 μL of antibiotic A (backbone), at a single dilution, was pipetted into all wells of a 96-well plate to be used.
(§8) 20 μL of the lowest concentration of antibiotic B (first variable) was pipetted into column 1 of the 96-well plate. The second concentration (2-fold more concentrate) was pipetted into column 2. This process was repeated until all concentrations of antibiotic B to be used were complete.
(§9) 20 μL of the lowest concentration of antibiotic C (second variable) were pipetted into row A of the 96-well plate. The second concentration (2-fold more concentrate) was pipetted into row B. This process was repeated until all concentrations of antibiotic C to be used were complete.
(§10) 120 μL of sterile media (BHI/MHB2) was added.
(§11) 20 ul of prepared bacterial culture was added.
(§12) Plates were sealed with lids and left to incubate for 16 hours, overnight.
(§13) Plates were read at OD600 in a 96-well plate reader. These are the values reported in the chequerboards below.
(§14) As a tri-mer combination, two antibiotic concentrations were varied while one remained constant, the latter is the “backbone”. For the 4-mer combination, two antibiotic concentrations were varied while two remained constant, the latter is the “backbone”. This method is explained above along with the calculation of the FICI and the indicative value for synergy, indifference and antagonism.
The method was identical to Comparative Example 1, except the isolate was P. aeruginosa.

A. baumannii = assay: chequerboard assay (percentage of positive control, MIC, FIC) against A. baumannii; conditions: for concentration up to which the isolate was resistant to the agent / MIC: A. baumannii isolate, agent alone; for MIC: Acinetobacter baumannii, read-out: MIC Monotherapy (X)
From the text: as §1, §2, §3, §4, §5, §6, §7, §8, §9, §10, §11, §12, §13, §14
The method was identical to Comparative Example 1. The isolate was A. baumannii.

K. pneumoniae CPE = assay: chequerboard assay (OD600, FIC) against K. pneumoniae CPE; conditions: agent alone
ESBL E. coli = assay: chequerboard assay (OD600, MIC, FIC) against ESBL E. coli; conditions: for MIC: Escherichia coli, agent alone, ESBL E. coli isolate, read-out: MIC Monotherapy (X)
From the text: as §1, §2, §3, §4, §5, §6, §7, §8, §9, §10, §11, §12, §13, §14

[1] = test system: Methicillin-resistant Staphylococcus aureus (MRSA); assay: chequerboard assay (percentage of positive control, MIC, FIC) against MRSA; conditions: for MIC: Staphylococcus aureus, agent alone, MRSA isolate, read-out: MIC Monotherapy (X)
From the text: as §1, §2, §3, §4, §5, §6, §7, §8, §9, §10, §11, §12, §13, §14
The method was identical to Comparative Example 1. The isolate was Methicillin-resistant Staphylococcus aureus (MRSA).

[2] = agent alone, P. aeruginosa isolate
[3] = agent within AZT + ceftazidime + colistin (Example 17)
[4] = agent within AZT + fosfomycin + colistin (Example 15)
[5] = agent within AZT + meropenem + colistin + fosfomycin (Example 14)
[6] = agent within zidovudine + meropenem + colistin + ceftazidime (Example 13)
[7] = agent within zidovudine + meropenem + colistin + fosfomycin (Example 14)
[8] = agent within AZT + colistin + ceftazidime (Example 17)
[9] = agent within AZT + ceftazidime + meropenem (Example 16)
[10] = agent within ceftazidime + AZT + doxycycline (Example 3)
[11] = agent within ceftazidime + levofloxacin + fosfomycin (Example 18)
[12] = agent within ceftazidime + levofloxacin + meropenem (Example 19)
[13] = P. aeruginosa isolate, agent alone

SMILES	MIC (P. aeruginosa; [2]) [µg/mL]	MIC combination therapy (Y) (P. aeruginosa; [3]) [µg/mL]	MIC combination therapy (Y) (P. aeruginosa; [4]) [µg/mL]	Ratio Y:X (P. aeruginosa; [4])	MIC combination therapy (Y) (P. aeruginosa; [6]) [µg/mL]	MIC combination therapy (Y) (P. aeruginosa; [7]) [µg/mL]	MIC (A. baumannii) [µg/mL]	MIC combination therapy (Y) (A. baumannii; [8]) [µg/mL]	MIC combination therapy (Y) (A. baumannii; [4]) [µg/mL]	Ratio Y:X (A. baumannii; [4])	MIC combination therapy (Y) (P. aeruginosa; [9]) [µg/mL]	MIC combination therapy (Y) (ESBL E. coli; [10]) [µg/mL]	MIC combination therapy (Y) [1, 11] [µg/mL]	MIC combination therapy (Y) [1, 12] [µg/mL]	MIC [1] [µg/mL]	also measured
CCC(C)CCCC(=O)N[C@@H](CCN)C(=O)N[C@H](C(=O)N[C@@H](CCN)C(=O)N[C@H]1CCNC(=O)[C@H]([C@@H](C)O)NC(=O)[C@H](CCN)NC(=O)[C@H](CCN)NC(=O)[C@H](CC(C)C)NC(=O)[C@@H](CC(C)C)NC(=O)[C@H](CCN)NC1=O)[C@@H](C)O (stereo partly drawn) (HELM PEPTIDE1{[CCC(C)CCCC(=O)[*:2]].[Dab].T.[Dab].[Dab].[Dab].[dL].L.[Dab].[Dab].T}$PEPTIDE1,PEPTIDE1,5:R3-11:R2$$$V2.0)	512	4	0.5	0.000977	2	32	128	32	0.5	0.003906						Ratio Y:X (P. aeruginosa; [3]): 0.007813; Ratio Y:X (P. aeruginosa; agent within AZT + meropenem + colistin + ceftazidime (Example 13)): 0.003906; Ratio Y:X (P. aeruginosa; [5]): 0.0625; concentration up to which the isolate was resistant to the agent (A. baumannii): 64 mg/L; Ratio Y:X (A. baumannii; [8]): 0.25; concentration at which the isolate was resistant to the agent (K. pneumoniae CPE): ≥ 8 mg/L
CC(C)(O/N=C(\C(=O)N[C@@H]1C(=O)N2C(C(=O)[O-])=C(C[n+]3ccccc3)CS[C@H]12)c1csc(N)n1)C(=O)O [Ceftazidime]	512	1			1		512	32			0.5	4	16	1		concentration at which the isolate was resistant to the agent (K. pneumoniae CPE): 4 mg/L
C[C@H]1c2cccc(O)c2C(=O)C2=C(O)[C@]3(O)C(=O)C(C(N)=O)=C(O)[C@@H](N(C)C)[C@@H]3[C@@H](O)[C@@H]21 [Doxycycline]												0.5				MIC (ESBL E. coli): 1 µg/mL
C[C@@H]1O[C@@H]1P(=O)(O)O [Fosfomycin]	256		16	0.125		4	256		32	0.125			2		16	concentration up to which the isolate was resistant to the agent (P. aeruginosa; [13]): 64 mg/L; MIC Monotherapy (X) (P. aeruginosa; [2]): 128 µg/mL; Ratio Y:X (P. aeruginosa; [5]): 0.01562; concentration up to which the isolate was resistant to the agent (A. baumannii): 128 mg/L; Ratio Y:X [1, 11]: 0.125
C[C@H]1COc2c(N3CCN(C)CC3)c(F)cc3c(=O)c(C(=O)O)cn1c23 [Levo, Levofloxacin]													0.125	0.25	1	Ratio Y:X [1, 11]: 0.125; Ratio Y:X [1, 12]: 0.25
C[C@@H](O)[C@H]1C(=O)N2C(C(=O)O)=C(S[C@@H]3CN[C@H](C(=O)N(C)C)C3)[C@H](C)[C@H]12 [Meropenem]	32				2	4					4			4	32	concentration up to which the isolate was resistant to the agent (P. aeruginosa; [13]): 64 mg/L
Cc1cn([C@H]2C[C@H](N=[N+]=[N-])[C@@H](CO)O2)c(=O)[nH]c1=O [Zidovudine, 1-[(2R, 4S, 5S)-4-Azido-5-(hydroxymethyl)oxolan-2-yl]-5-methylpyrimidine-2,4-dione]	512	2	0.5	0.000977	1	1	512	4	0.5	0.000977	8	0.125				Ratio Y:X (P. aeruginosa; [3]): 0.003906; Ratio Y:X (P. aeruginosa; [9]): 0.01562; Ratio Y:X (P. aeruginosa; [6]): 0.001953; Ratio Y:X (P. aeruginosa; [7]): 0.001953; Ratio Y:X (A. baumannii; [8]): 0.007813; MIC (ESBL E. coli): 1 µg/mL; Ratio Y:X (ESBL E. coli; [10]): 0.125
